US8999956B2, “N-[(het)arylalkyl)] pyrazole(thio)carboxamides and their heterosubstituted analogues” (Bayer Intellectual Property GmbH, priority 2010, dated 2015)
Where two headings read alike, the source gives them in different places.

Experiments:
Venturia inaequalis = experiment: In vivo preventive test on Venturia inaequalis (apple scab); settings: 100 ppm of active ingredient, evaluated 10 days after inoculation
Protocol: (§1) Solvent: 24.5 parts by weight of acetone • 24.5 parts by weight of N,N-dimethylacetamide Emulsifier: 1 part by weight of alkylaryl polyglycol ether To produce a suitable preparation of active compound, 1 part by weight of active compound is mixed with the stated amounts of solvent and emulsifier, and the concentrate is diluted with water to the desired concentration. To test for preventive activity, young plants are sprayed with the preparation of active compound at the stated rate of application.

Septoria tritici = experiment: In vivo preventive test on Septoria tritici (wheat); settings: 500 ppm of active ingredient, evaluated 21 days after inoculation
Protocol: Solvent: 49 parts by weight of N,N-dimethylacetamide Emulsifier: 1 part by weight of alkylaryl polyglycol ether To produce a suitable preparation of active compound, 1 part by weight of active compound or active compound combination is mixed with the stated amounts of solvent and emulsifier, and the concentrate is diluted with water to the desired concentration. To test for preventive activity, young plants are sprayed with the preparation of active compound or active compound combination at the stated rate of application. After the spray coating has been dried, the plants are sprayed with a spore suspension of Septoria tritici.

[1] = tested on: Blumeria graminis fsp. hordei; experiment: In vivo preventive test on Blumeria graminis (barley); settings: 500 ppm of active ingredient, evaluated 7 days after inoculation
Protocol: Solvent: 49 parts by weight of N,N-dimethylacetamide Emulsifier: 1 part by weight of alkylaryl polyglycol ether To produce a suitable preparation of active compound, 1 part by weight of active compound or active compound combination is mixed with the stated amounts of solvent and emulsifier, and the concentrate is diluted with water to the desired concentration. To test for preventive activity, young plants are sprayed with the preparation of active compound or active compound combination at the stated rate of application. After the spray coating has been dried, the plants are dusted with spores of Blumeria graminis fsp. hordei.

[2] = tested on: Fusarium nivale (var. majus); experiment: In vivo preventive test on Fusarium nivale (wheat); settings: 500 ppm of active ingredient, evaluated 5 days after inoculation
Protocol: Solvent: 49 parts by weight of N,N-dimethylacetamide Emulsifier: 1 part by weight of alkylaryl polyglycol ether To produce a suitable preparation of active compound, 1 part by weight of active compound or active compound combination is mixed with the stated amounts of solvent and emulsifier, and the concentrate is diluted with water to the desired concentration. To test for preventive activity, young plants are sprayed with the preparation of active compound or active compound combination at the stated rate of application. After the spray coating has been dried, the plants are slightly injured by using a sandblast and afterwards they are sprayed with a conidia suspension of Fusarium nivale (var. majus).

Uromyces appendiculatus = experiment: In vivo preventive test on Uromyces appendiculatus (beans); settings: 100 ppm of active ingredient, evaluated 10 days after inoculation
Protocol: as §1

Phakopsora pachyrhizi = experiment: In vivo protective test on Phakopsora pachyrhizi (soybeans); settings: Table N, 250 ppm of active ingredient, evaluated 11 days after inoculation
[3] = tested on: aflatoxines produced by Aspergillus parasiticus; experiment: microbe, parasite or virus in culture; type: cell-based
Aspergillus parasiticus = experiment: microbe, parasite or virus in culture; type: cell-based
[4] = log P by HPLC on reversed-phase column (EEC Directive 79/831 Annex V.A8); type: physicochemical
Protocol: In table 1, the log P values were determined in accordance with EEC Directive 79/831 Annex V.A8 by HPLC (High Performance Liquid Chromatography) on a reversed-phase column (C18), using the method described below: Temperature: 40° C.; […]

Sphaerotheca fuliginea = experiment: In vivo preventive test on Sphaerotheca fuliginea (cucumber); settings: 500 ppm of active ingredient, evaluated 7 days after inoculation
How it was run: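 Young cucumber plants sprayed with compound (in DMF with alkylarylpolyglycolether emulsifier, diluted in water) at the stated application rate. Inoculated one day later with aqueous Sphaerotheca fuliginea spore suspension. Plants then held in greenhouse at approximately 23° C and approximately 70% relative humidity.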

Alternaria solani = experiment: In vivo preventive test on Alternaria solani (tomato); settings: 500 ppm of active ingredient, evaluated 7 days after inoculation
How it was run: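 Preventive set-up: Alternaria solani spores, as aqueous suspension, applied to young plants one day after spraying. Spray contained active compound formulated with N,N-dimethylformamide and emulsifier, water-diluted to the desired application rate.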

Pyrenophora teres = experiment: In vivo preventive test on Pyrenophora teres (barley); settings: 500 ppm of active ingredient, evaluated 7-9 days after inoculation
How it was run: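 Preventive test: young barley plants received a water-diluted spray of compound formulated with DMF solvent plus alkylaryl polyglycol ether emulsifier, at the stated rate. Inoculation with an aqueous spore suspension of Pyrenophora teres followed one day after spraying.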

Puccinia triticina = experiment: In vivo preventive test on Puccinia triticina (wheat)
Cochliobolus miyabeanus = experiment: In vivo protective test on Cochliobolus miyabeanus (rice); settings: Table M, 250 ppm of active ingredient, evaluated 4 days after inoculation
Leptosphaeria nodorum = experiment: In vivo preventive test on Leptosphaeria nodorum (wheat); settings: 500 ppm of active ingredient, evaluated 7-9 days after inoculation
How it was run: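 Plants were inoculated with aqueous L. nodorum spores one day after a protective spray. The spray contained the compound at the stated rate, as a water-diluted concentrate in N,N-dimethylacetamide plus alkylaryl polyglycol ether emulsifier.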

Botrytis cinerea = experiment: In vivo preventive test on Botrytis cinerea (beans)
Protocol: Solvent: 24.5 parts by weight of acetone • 24.5 parts by weight of N,N-dimethylacetamide
Emulsifier: 1 part by weight of alkylaryl polyglycol ether
To produce a suitable preparation of active compound, 1 part by weight of active compound is mixed with the stated amounts of solvent and emulsifier, and the concentrate is diluted with water to the desired concentration.
To test for preventive activity, young plants are sprayed with the preparation of active compound. After the spray coating has dried on, 2 small pieces of agar covered with growth of Botrytis cinerea are placed on each leaf. The inoculated plants are placed in a darkened chamber at 20° C. and a relative atmospheric humidity of 100%.
2 days after the inoculation, the size of the lesions on the leaves is evaluated. 0% means an efficacy which corresponds to that of the untreated control, while an efficacy of 100% means that no disease is observed.

[5] = Table K, 500 ppm of active ingredient, evaluated 8 days after inoculation
[6] = Table L, 500 ppm of active ingredient, lesion size 2 days after inoculation
[7] = 500 ppm of active ingredient, lesion size 2 days after inoculation

Row | SMILES | Efficacy (Venturia inaequalis) [%] | Efficacy (Septoria tritici) [%] | Efficacy [1] [%] | Efficacy [2] [%] | Efficacy (Uromyces appendiculatus) [%] | Efficacy (Phakopsora pachyrhizi) [%] | % Inhibition of Aflatoxin at 50 μM [3] [%] | logP [4] | Efficacy (Sphaerotheca fuliginea) [%] | Efficacy (Alternaria solani) [%] | Efficacy (Pyrenophora teres) [%] | Efficacy (Puccinia triticina; [5]) [%] | Efficacy (Leptosphaeria nodorum) [%] | Efficacy (Botrytis cinerea; [6]) [%] | % Inhibition of fungal growth at 50 μM (Aspergillus parasiticus) [%] | also measured
1 | CC(C)CC(C)C1CCCCC1NC(=O)c1c(C(F)F)nn(C)c1Cl (single isomer, unassigned) [Example 334] | 100 | 100 | 90 | 93 | 100 | 100 | 100 | 4.75 isomer A | – | – | – | – | – | – | – | % Inhibition of fungal growth at 50 μM (Aspergillus parasiticus; 50 µM): 90%
2 | Cn1nc(C(F)F)c(C(=O)NC2CCCCC2CCC(C)(C)C)c1F (single isomer, unassigned) [Example 358] | 100 | 80 | 100 | 100 | – | 95 | – | 4.51 isomer B | 100 | 100 | 100 | 100 | – | – | – | –
3 | CC(CC(C)(C)C)C1CCCCC1NC(=O)c1c(C(F)F)nn(C)c1F (single isomer, unassigned) [Example 360] | 100 | 90 | 100 | 86 | – | – | 100 | 4.85 isomer A | 100 | 95 | 95 | 100 | – | – | – | Efficacy (Cochliobolus miyabeanus): 94%; % Inhibition of fungal growth at 50 μM (Aspergillus parasiticus; 50 µM): 96%
4 | CC(N(C(=O)c1c(C(F)F)nn(C)c1F)C1CC1)C(C)(C)Cc1ccccc1 (centres unmarked) [Example 9] | 100 | 100 | 100 | 100 | 94 | – | – | 4.06 | 95 | 90 | 100 | – | 100 | 100 | – | –
5 | CC(CCc1ccc(Cl)cc1Cl)N(C(=O)c1c(C(F)F)nn(C)c1F)C1CC1 (centres unmarked) [Example 184] | 100 | 100 | 100 | 100 | 100 | – | 100 | 4.56 | 100 | 90 | 100 | 90 | 95 | – | 100 | –
6 | Cn1nc(C(F)F)c(C(=O)N(CC2CCCCC2c2ccccc2)C2CC2)c1F (centres unmarked) [Example 240] | 100 | 100 | 100 | 71 | 100 | 85 | 100 | 4.31 | – | 100 | 100 | 95 | 70 | 95 | 98 | Efficacy (Botrytis cinerea; [7]): at least 95%; Efficacy (Botrytis cinerea; Table L2, dose 500 ppm, comparison with des-fluoro analogues): 95%
7 | Cn1nc(C(F)F)c(C(=O)N(CC2CCCCC2c2ccccc2Cl)C2CC2)c1F (centres unmarked) [Example 241] | 100 | 100 | – | – | 100 | 99 | 100 | 4.67 | 100 | 100 | 100 | 100 | 80 | 99 | 97 | –
8 | Cn1nc(C(F)F)c(C(=O)N(CC2CCCCC2c2ccc(Cl)cc2Cl)C2CC2)c1F (centres unmarked) [Example 242] | 100 | – | – | – | 100 | 99 | 100 | 5.31 | 100 | 100 | 100 | 100 | – | 95 | 100 | –
9 | Cn1nc(C(F)F)c(C(=O)N(C2CC2)C2CCCC(c3ccccc3)C2)c1F (centres unmarked) [Example 256] | 100 | 100 | – | 100 | 100 | 85 | 96 | 4.01 | – | 93 | 100 | 95 | 95 | 93 | 79 | Efficacy (Puccinia triticina; 500 ppm of active ingredient, evaluated 8 days after inoculation): at least 95%; Efficacy (Puccinia triticina; Table K5, dose 500 ppm, comparison with des-fluoro analogues): 95%; Efficacy (Botrytis cinerea; [7]): at least 90%; Efficacy (Botrytis cinerea; Table L5, dose 500 ppm, comparison with des-fluoro analogues): 93%
10 | Cn1nc(C(F)F)c(C(=O)NC2CCCC(CCC(C)(C)C)C2)c1F (centres unmarked) [Example 324, 3-(difluoromethyl)-N-[3-(3,3-dimethylbutyl)cyclohexyl]-5-fluoro-1-methyl-1H-pyrazole-4-carboxamide] | – | – | – | 100 | – | – | – | – | – | 90 | 94 | – | – | – | – | pest or weed control at 500 ppm (Puccinia triticina; Puccinia triticina, 192 h, Table K, 500 ppm of active ingredient, evaluated 8 days after inoculation, read-out: Efficacy): 100%; Efficacy (Cochliobolus miyabeanus): 97%; chromatographic logP ([4]; log P): 4.8; chromatographic logP ([4]; logP): 4.8
11 | CC(C)CCC1CCCCC1NC(=O)c1c(C(F)F)nn(C)c1F (centres unmarked) [Example 333] | 99 | 100 | 100 | 100 | – | 97 | 100 | 4.22 | 100 | 100 | 100 | 90 | 80 | – | 92 | –
12 | Cn1nc(C(F)F)c(C(=O)NC2CCCCC2CC[Si](C)(C)C)c1F (centres unmarked) [Example 353] | 99 | 80 | 90 | 100 | – | 85 | 99 | 4.70 | – | 95 | 95 | 70 | – | – | 85 | –
13 | CC(CC(C)(C)C)C1CCCCC1NC(=O)c1c(C(F)F)nn(C)c1Cl (centres unmarked) [Example 359] | 99 | 100 | 94 | 100 | 100 | – | 100 | 5.28 | 100 | 95 | 100 | 100 | – | – | 90 | –
